Data on 8 molecules can be found in PubChem BioAssay (NCI).

Values joined by “and” are separate entries in the source; they are usually repeats but may differ in a detail not shown here. Identical values can stand only once.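 How tested: cells in 96-well plates exposed to compound for 48 hours at five concentrations. GI50 = concentration required for 50% inhibition of growth. TGI denotes the concentration required for complete inhibition of growth.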

Among the test systems are M14 melanoma; A498 renal; MOLT-4 leukemia; EKVX NSCLC; UACC-257 melanoma; NCI-H23 lung; PC-3 prostate; NCI-H226 lung; UO-31 renal; 786-0 renal.
Common to all, as to test: NCI tumour cell line growth inhibition, 48 h

Regarding `c1ccc2cc(-c3cc(-c4cc(-c5ccc6ccccc6c5)on4)no3)ccc2c1`, the TGI in the assay on M14 melanoma, with A498 renal, with MOLT-4 leukemia, in the assay on EKVX NSCLC, in the assay on UACC-257 melanoma and in the assay with NCI-H23 lung was over 100 µM each time. For the same molecule, the TGI in the assay on PC-3 prostate, in the assay with NCI-H226 lung, in the assay with UO-31 renal and in the assay with 786-0 renal was over 100 µM each time.
Regarding `O=C(Nc1ccc(Cl)c(Cl)c1)Nc1ccc(Cl)c(Cl)c1`, the GI50 in the assay with M14 melanoma was 3.1 µM; in the assay with MOLT-4 leukemia, 2.64 µM and 2.31 µM; with EKVX NSCLC, 2.36 µM; in the assay on UACC-257 melanoma, 2.39 µM and 2.05 µM; in the assay on NCI-H23 lung, 2.63 µM and 2.4 µM; with PC-3 prostate, 2.82 µM and 1.78 µM. Moreover, the GI50 with NCI-H226 lung is 3.05 µM and 3.22 µM; in the assay with UO-31 renal it was 2.25 µM and 2.74 µM; with 786-0 renal, 3.79 µM and 3.21 µM. The TGI was 9.59 µM in the assay with M14 melanoma; 2.79 µM and 5.18 µM with A498 renal; 10.2 µM and 6.6 µM in the assay on MOLT-4 leukemia; 11.1 µM in the assay with EKVX NSCLC; 6.96 µM and 5.85 µM in the assay with UACC-257 melanoma; 10.2 µM and 11.4 µM in the assay with NCI-H23 lung. Moreover, the TGI was 12.3 µM and 9.82 µM with PC-3 prostate; 15.2 µM and 15.8 µM in the assay on NCI-H226 lung; 7.78 µM and 8.91 µM in the assay on UO-31 renal; 14.4 µM and 13 µM in the assay on 786-0 renal.
With `CO[C@H](C(=O)[C@@H](O)[C@@H](C)O)[C@@H]1Cc2cc3cc(O[C@H]4C[C@@H](O[C@H]5C[C@@H](O)[C@H](O)C(C)O5)[C@H](O)C(C)O4)c(C)c(O)c3c(O)c2C(=O)[C@H]1O[C@H]1C[C@@H](O[C@H]2C[C@@H](O[C@H]3C[C@](C)(O)C(=O)C(C)O3)[C@@H](O)C(C)O2)[C@H](O)C(C)O1` (stereo partly drawn), the GI50 in the assay on M14 melanoma is 0.12 µM; with A498 renal it was 0.0185 µM; in the assay on MOLT-4 leukemia it was 0.193 µM; with EKVX NSCLC, 0.168 µM; in the assay on UACC-257 melanoma, 0.0995 µM; in the assay with NCI-H23 lung, 0.0771 µM. Besides, the GI50 in the assay on PC-3 prostate is 0.151 µM; with NCI-H226 lung, 0.0457 µM; with UO-31 renal it was 0.159 µM; in the assay on 786-0 renal, 0.101 µM. The TGI with M14 melanoma is 0.817 µM; in the assay with A498 renal, 0.147 µM; with MOLT-4 leukemia, over 19.1 µM; in the assay with EKVX NSCLC, over 12.3 µM; in the assay on UACC-257 melanoma it was 2.27 µM; with NCI-H23 lung it was 1.07 µM. In addition, the TGI in the assay on PC-3 prostate came to 32.2 µM; in the assay with NCI-H226 lung, 0.3 µM; in the assay with UO-31 renal, 1.6 µM; with 786-0 renal, 17.1 µM.
In the case of `COc1ccc2c(c1)/C(=C/c1c(C)nc3sc(C)nn13)C(=O)N2`, the GI50 in the assay with M14 melanoma is 1.79 µM; with A498 renal it was 3.07 µM; in the assay with MOLT-4 leukemia, 2.64 µM; in the assay on EKVX NSCLC, 8.36 µM; with UACC-257 melanoma it was over 100 µM; with NCI-H23 lung, 3.33 µM. The GI50 with PC-3 prostate was 2.48 µM; in the assay with NCI-H226 lung, over 28.4 µM; in the assay with UO-31 renal it was 5.23 µM; with 786-0 renal, 6.08 µM. The TGI in the assay with M14 melanoma is over 27.9 µM; in the assay on A498 renal it was over 50 µM; in the assay on MOLT-4 leukemia it was over 100 µM; in the assay on EKVX NSCLC, over 100 µM; in the assay on UACC-257 melanoma, over 100 µM; in the assay with NCI-H23 lung, over 65.5 µM. In addition, the TGI with PC-3 prostate, in the assay with NCI-H226 lung, in the assay with UO-31 renal and in the assay with 786-0 renal was over 100 µM in each case.
`Cc1ccc2c(=O)cc(-c3ccc(F)cc3)[nH]c2n1`: the TGI in the assay with M14 melanoma was over 100 µM; with A498 renal, 66.6 µM; with MOLT-4 leukemia, over 100 µM; in the assay on EKVX NSCLC, over 100 µM; in the assay on UACC-257 melanoma, over 100 µM; in the assay with NCI-H23 lung it was over 100 µM. The TGI with PC-3 prostate was 88.1 µM; in the assay on NCI-H226 lung, over 100 µM; in the assay with UO-31 renal it was over 100 µM; in the assay with 786-0 renal, over 100 µM. The GI50 with PC-3 prostate was 20.9 µM; in the assay with 786-0 renal, 42.2 µM.
`Cc1ccc(NC2=C(Cl)C(=O)N(Cc3ccccc3)C2=O)cc1O`: the GI50 with M14 melanoma is 51.4 µM; with A498 renal, 7.18 µM; in the assay on MOLT-4 leukemia, 24.3 µM; in the assay with EKVX NSCLC, 17.8 µM; with UACC-257 melanoma, 39.5 µM; with NCI-H23 lung it was 34.3 µM. Moreover, the GI50 in the assay on PC-3 prostate was 32.5 µM; in the assay with NCI-H226 lung, 18.1 µM; in the assay with UO-31 renal, 82.2 µM; in the assay on 786-0 renal, 22.6 µM. The TGI was over 100 µM in the assay with M14 melanoma; 33.1 µM with A498 renal; over 100 µM with MOLT-4 leukemia; 52.6 µM in the assay on EKVX NSCLC; over 100 µM with UACC-257 melanoma; over 100 µM in the assay on NCI-H23 lung. In addition, the TGI in the assay on PC-3 prostate was over 100 µM; in the assay on NCI-H226 lung, 60.6 µM; in the assay with UO-31 renal, over 100 µM; with 786-0 renal, over 100 µM.
`COC(=O)[C@@H]1[C@H](O)[C@H](C)[C@H](O)[C@@](C)(O)/C=C\C=C(C)C(=O)Nc2c(C)c(OC(C)=O)c3c(c2O)C(=O)C(C)=C2OCOC(=C23)C(C)=C[C@@](C)(O)[C@H](O)[C@@H](C)[C@H]1OC(C)=O`: the GI50 is > 100 µM and 21 µM and 29.1 µM with M14 melanoma; over 66.9 µM with EKVX NSCLC; 35.2 µM in the assay on UACC-257 melanoma. Besides, the TGI with M14 melanoma is > 100 µM and 66.9 µM and 86.5 µM; in the assay on A498 renal, over 100 µM; with MOLT-4 leukemia it was over 100 µM; in the assay with EKVX NSCLC, over 100 µM; in the assay with UACC-257 melanoma it was > 100 µM and 66.9 µM and 93.1 µM; in the assay with NCI-H23 lung, > 100 µM and 66.9 µM and 47.8 µM. Further, the TGI with PC-3 prostate was over 66.9 µM; in the assay with NCI-H226 lung, over 100 µM; in the assay on UO-31 renal it was > 100 µM and 66.9 µM; in the assay with 786-0 renal, over 100 µM.
Consider `Cc1nc2ccccc2c(N)c1-c1cc(C)c2c(C)nc3ccccc3c2n1`, for which the GI50 in the assay on M14 melanoma is 1.34 µM; in the assay with A498 renal it was 1.73 µM; in the assay on MOLT-4 leukemia, 0.54 µM; in the assay with EKVX NSCLC, 1.61 µM; in the assay on UACC-257 melanoma it was 1.79 µM; in the assay on NCI-H23 lung, 1.56 µM. In addition, the GI50 was 1.02 µM with PC-3 prostate, 1.44 µM in the assay on NCI-H226 lung, 0.78 µM in the assay on UO-31 renal and 1.16 µM with 786-0 renal. For the same molecule, the TGI in the assay on M14 melanoma was 2.65 µM; with A498 renal it was 4.11 µM; with EKVX NSCLC it was 3.29 µM; in the assay on UACC-257 melanoma, 3.29 µM; in the assay with NCI-H23 lung, 3.24 µM; in the assay with PC-3 prostate, 3.1 µM. For the same molecule, the TGI in the assay with NCI-H226 lung was determined as 2.94 µM; in the assay on UO-31 renal, 2.26 µM; in the assay with 786-0 renal it was 2.45 µM.
